Laboratory results published in patent US20050272677A1, “Delivery of a substance to a pre-determined site” (priority 2002, published 2005).
Where two headings read alike, the source gives them in different places.

How the values were obtained:
[1] = In vivo delivery of luciferase DNA complexed with Sunfish amphiphiles; set-up: species or system mouse; conditions: 24 hours; efficiency order SF-46>SF-36>SF-6>SF-30>SF-63
Procedure: Sunfish (SF) amphiphiles were tested and compared to DOTAP, a commercially available amphiphile (Avanti Polar Lipids). The used plasmid DNA codes for Luciferase, which is expressed upon transfection. Luciferase activity represents the efficiency of transfection. Liposomes were prepared by drying the Sunfish amphiphiles or DOTAP in glass tubes under a nitrogen flow followed by being under vacuum for one hour. The lipid film was resuspended in 20% sucrose by mixing and warming up for five minutes to 60° C. in a water bath. The liposomal suspension was then sonicated for three minutes. For lipoplexes formation, plasmid DNA (30 μg/mouse) diluted in 20% sucrose was added to the liposomes (450 nmol/mouse) under mixing. The lipoplexes were allowed to rest at room temperature for […] and were intravenously injected (150 μl) in male BALB/c mice. Organs (lungs, heart, liver, spleen and kidneys) were collected 24 hours after injection for analysis. Luciferase activity was measured in homogenates of the different organs and related to a standard curve obtained with purified recombinant Luciferase.

[2] = test system: neurospheres (neural stem cells); experiment: Ex vivo transfection of neurospheres with pEGFP-N1 lipoplexes; type: cell-based, mice; conditions: 4 hours incubation, read after two days
Procedure: Neural stem cells were isolated from the forebrain of mice embryos and cultured in the presence of epidermal growth factor (EGF) and fibroblast growth factor (FGF). In the presence of these growth factors, neural stem cells form neurospheres, clusters of cells that grow in suspension.
Prior to transfection of neurospheres, the spheres were immobilized on Labtek culture plates that were coated with poly-ornithine. Subsequently, neurospheres were incubated for 4 hours with SF-6/DOPE (1:1 molar ratio), SF-63, SF-80/DOPE (1:1 molar ratio), or Lipofectamine 2000 lipoplexes, containing plasmid DNA encoding Enhanced Green Fluorescent Protein (pEGFP-N1). After two days, the transfection efficiency was determined with fluorescence microscopy.

[3] = test system: pB104 strain (MscL null E. coli); experiment: Growth assay of MscL mutants on agar plates with or without IPTG; type: cell-based; set-up: key: ++++: growth equal to cells expressing wild-type MscL; growth is indicated by ++++ to −; growth is indicated by ++++ to −; growth is indicated by ++++ to −; −: an absence of growth; conditions: pB104 with Lac-inducible plasmid
Procedure: The constructs of the MscL-6His mutants were constructed using standard molecular biology techniques. The mutants were tested in the pB104 strain (MscL null E. coli) by a growth assay on agar plates with or without IPTG (K. Yoshimura et al., 1999, Biophys. J. 77:1960-1972).
The first phenotype (++) grows like the single G22S mutant.

MscL [4] = conditions: spheroplasts
Procedure: Patch-clamp experiments on spheroplast allow quantitation of the tension sensitivity because of the presence of an internal control, which is the mechanosensitive channel of small conductance (MscS). […] For most clinical applications, it is important that the channel remains closed at pH values of 7.4.
Giant spheroplasts were prepared as described before and electrophysiological measurements were done by using symmetrical buffers, both in the bath and in the pipette. The gating threshold of MscL (or its mutant) is given as the ratio of the suction required to open MscL to that at which MscS opens.
Giant spheroplasts were prepared as described in P. Blount, et al., 1999, Methods Enzymol. 294:458-482.

[5] = test system: pB104 strain (MscL null E. coli); experiment: MTSET shock assay on agar plates with IPTG; type: cell-based; set-up: Growth −MTSET-shock: key to the marks not given beside the values
Procedure: The constructs of the G20C^Ll, V21C^Ll and G22C^Ec MscL-6His mutants were constructed using standard molecular biology techniques. The mutants were tested in pB104 strain (MscL null E. coli) by a MTSET shock assay on agar plates with IPTG (A. F. Batiza, et al., 2002, PNAS, 99:5643-5648).

MscL [6] = target: T1, MscL (Escherichia coli, UniProt P0A742); type: biochemical, E. coli
T1 sequence (P0A742 whole entry, looked up): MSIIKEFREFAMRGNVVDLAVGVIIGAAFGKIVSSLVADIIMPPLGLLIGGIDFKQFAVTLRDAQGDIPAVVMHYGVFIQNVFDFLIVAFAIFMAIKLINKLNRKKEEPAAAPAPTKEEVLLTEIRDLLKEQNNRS
Procedure: Results Overexpression and Purification of the MscL Channel Protein
Samples were prepared and calcein efflux was monitored as described elsewhere in Example 1.
300 μl of detergent-treated liposomes were gently mixed with 240 μl of 0.25 mg/ml purified MscL-mutant G22C in elution buffer containing 0.2% Triton X-100. The mixture was incubated at 60° C. for 45 minutes, followed by the addition of an equal volume (540 μl) of calcein-loading buffer, containing 200 mM calcein, 25 mM Tris, 1 mM EDTA, pH 8.0. After addition of 20 mg of Triton X-100-absorbing Bio-Beads SM-2, the mixture was gently agitated for one hour at room temperature. Subsequently, 80 mg Bio-Beads were added and incubated at 4° C. overnight under mild agitation. Samples were prepared for calcein efflux assay as described elsewhere.

MscL [7] = conditions: pH 6; Yoshimura et al. 1999; cited from earlier work

Row | Compound | gene expression (Luciferase) after intravenous injection of complexed DNA [1] | transfection efficiency (GFP, fluorescence microscopy) [2] | Growth on agar plates +IPTG ([3]; with IPTG) | Growth on agar plates −IPTG ([3]; without IPTG) | Gating threshold (ratio of activation pressure to that of MscS) (MscL [4]; pH 5.85) | Gating threshold (ratio of activation pressure to that of MscS) (MscL [4]; pH 7.5) | Growth after +MTSET-shock [5] | Growth −MTSET-shock [5] | calcein efflux upon osmotic downshock (MscL [6]) | Gating threshold (ratio of activation pressure to that of MscS) (MscL [7])
1 | CCCCCCCC/C=C\CCCCCCCCCc1ccc[n+](CCCCCCCC/C=C\CCCCCCCC)c1.[Cl-] [SF-63, 1-(9′-cis-octadecenyl)-3-(10″-cis-nonadecenyl)pyridinium Chloride] | resulted in gene expression in the lungs | constant |  |  |  |  |  |  |  | 
2 | WT: wild-type E. coli MscL (6His construct) |  |  | ++++ | ++++ | 1.53 ± 0.185 | 1.56 ± 0.139 | ++++ | ++++ | greater efflux of calcein than liposomes without MscL | 1.64 ± 0.08
